Measurements published in patent publication US20180298010A1, “PRMT5 INHIBITORS AND USES THEREOF” (Epizyme, Inc., priority 2012, published 2018).

target: T1, PRMT5/MEP50 (Homo sapiens, UniProt O14744); assay: PRMT5 Biochemical Assay (PRMT5/MEP50 enzyme assay on peptide substrate, 3H-SAM Flashplate)
T1 construct: Flag-PRMT5; 6His-MEP50
Description: General Materials. S-adenosylmethionine (SAM), S-adenosylhomocysteine (SAH), bicine, KCl, Tween20, dimethylsulfoxide (DMSO), bovine skin gelatin (BSG), and Tris(2-carboxyethyl)phosphine hydrochloride solution (TCEP) were purchased from Sigma-Aldrich at the highest level of purity possible. ^3H-SAM was purchase from American Radiolabeled Chemicals with a specific activity of 80 Ci/mmol. 384-well streptavidin Flashplates were purchased from PerkinElmer.
Substrates. Peptide representative of human histone H4 residues 1-15 was synthesized with a C-terminal linker-affinity tag motif and a C-terminal amide cap by 21st Century Biochemicals. The peptide was high high-perfomance liquid chromatography (HPLC) purified to greater than 95% purity and confirmed by liquid chromatography mass spectrometry (LC-MS). The sequence was Ac-[…][K-Biot]-amide (SEQ ID NO.:3).
Molecular Biology: Full-length human PRMT5 (NM_006109.3) transcript variant 1 clone was amplified from a fetal brain cDNA library, incorporating flanking 5′ sequence encoding a FLAG tag ([…]) (SEQ ID NO.:4) fused directly to Ala 2 of PRMT5. Full-length human MEP50 (NM_024102) clone was amplified from a human testis cDNA library incorporating a 5′ sequence encoding a 6-histidine tag (MHHHHHH) (SEQ ID NO.:5) fused directly to Arg 2 of MEP50. The amplified genes were sublconed into pENTR/D/TEV (Life Technologies) and subsequently transferred by Gateway™ attL×attR recombination to pDEST8 baculvirus expression vector (Life Technologies).
Protein Expression. Recombinant baculovirus and Baculovirus-Infected Insect Cells (BIIC) were generated according to Bac-to-Bac kit instructions (Life Technologies) and Wasilko, 2006, respectively. Protein over-expression was accomplished by infecting exponentially growing Spodoptera frugiperda (SF9) cell culture at 1.2×10^6cell/ml with a 5000 fold dilution of BIIC stock. Infections were carried out at 27° C. for 72 hours, harvested by centrifugation, and stored at −80° C. for purification.
Protein Purification. […] Flag-PRMT5/6His-MeP50 was eluted with 300 mM Imidazole in the same buffer. The purity of recovered protein was 87%. Reference: Wasilko, D. J. and S. E. Lee: “TIPS: titerless infected-cells preservation and scale-up” Bioprocess J., 5 (2006), pp. 29-32.
General Procedure for PRMT5/MEP50 Enzyme Assays on Peptide Substrates. The assays were all performed in a buffer consisting of 20 mM Bicine (pH=7.6), 1 mM TCEP, 0.005% BSG, and 0.002% Tween20, prepared on the day of use. Compounds in 100% DMSO (1 ul) were spotted into a polypropylene 384-well V-bottom plates (Greiner) using a Platemate Plus outfitted with a 384-channel head (Thermo Scientific). DMSO (1 ul) was added to Columns 11, 12, 23, 24, rows A-H for the maximum signal control and 1 ul of SAH, a known product and inhibitor of PRMT5/MEP50, was added to columns 11, 12, 23, 24, rows I-P for the minimum signal control. A cocktail (40 ul) containing the PRMT5/MEP50 enzyme and the peptide was added by Multidrop Combi (Thermo-Fisher). The compounds were allowed to incubate with PRMT5/MEP50 for 30 min at 25 degrees Celsius, then a cocktail (10 ul) containing ^3H-SAM was added to initiate the reaction (final volume=51 ul). The final concentrations of the components were as follows: PRMT5/MEP50 was 4 nM, ^3H-SAM was 75 nM, peptide was 40 nM, SAH in the minimum signal control wells was 100 uM, and the DMSO concentration was […]. The assays were stopped by the addition of non-radioactive SAM (10 ul) to a final concentration of 600 uM, which dilutes the ^3H-SAM to a level where its incorporation into the peptide substrate is no longer detectable. 50 ul of the reaction in the 384-well polypropylene plate was then transferred to a 384-well Flashplate and the biotinylated peptides were allowed to bind to the streptavidin surface for at least 1 hour before being washed three times with 0.1% Tween20 in a Biotek ELx405 plate washer. […]

T1 sequence (O14744 with tags, fused parts or gaps): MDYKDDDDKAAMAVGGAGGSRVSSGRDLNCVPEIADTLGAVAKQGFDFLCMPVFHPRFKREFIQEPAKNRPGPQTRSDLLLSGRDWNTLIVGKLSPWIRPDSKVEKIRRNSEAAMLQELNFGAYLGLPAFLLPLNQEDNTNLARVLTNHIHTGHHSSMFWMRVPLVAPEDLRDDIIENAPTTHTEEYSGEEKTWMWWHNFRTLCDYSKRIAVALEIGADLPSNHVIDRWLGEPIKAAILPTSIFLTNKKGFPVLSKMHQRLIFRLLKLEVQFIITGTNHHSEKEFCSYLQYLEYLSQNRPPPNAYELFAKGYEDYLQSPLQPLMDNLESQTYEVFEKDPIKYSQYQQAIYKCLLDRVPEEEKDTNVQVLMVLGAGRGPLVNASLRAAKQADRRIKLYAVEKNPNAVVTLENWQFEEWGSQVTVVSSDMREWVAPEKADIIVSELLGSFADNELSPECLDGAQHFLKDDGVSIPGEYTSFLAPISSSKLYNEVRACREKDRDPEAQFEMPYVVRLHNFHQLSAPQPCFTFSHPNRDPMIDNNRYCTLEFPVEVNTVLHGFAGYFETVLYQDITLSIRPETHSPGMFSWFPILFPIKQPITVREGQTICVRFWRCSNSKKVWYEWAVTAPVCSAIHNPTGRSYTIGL
T1 sequence (Q9BQA1 with tags, fused parts or gaps partner): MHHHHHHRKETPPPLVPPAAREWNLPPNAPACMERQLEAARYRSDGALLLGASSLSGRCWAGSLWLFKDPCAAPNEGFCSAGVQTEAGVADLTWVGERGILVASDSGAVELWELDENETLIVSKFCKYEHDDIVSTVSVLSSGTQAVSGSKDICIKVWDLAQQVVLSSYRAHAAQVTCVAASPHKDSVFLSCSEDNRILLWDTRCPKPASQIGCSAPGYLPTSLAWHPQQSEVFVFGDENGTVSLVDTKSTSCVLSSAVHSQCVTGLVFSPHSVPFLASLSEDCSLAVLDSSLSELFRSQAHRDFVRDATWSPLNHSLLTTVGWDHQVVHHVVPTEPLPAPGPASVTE

IC50 [nM]	SMILES
101 to 1000	OC(COc1cccc(CNC2CCCC2)c1)CN1CCc2ccccc2C1 (centres unmarked) [Compound 1]
1000 to 10000	OC(COC1CCCN(c2ccccc2)C1)CN1CCc2ccccc2C1 (centres unmarked) [Compound 2]
101 to 1000	OC(COc1ccc(OCC(O)CN2CCc3ccccc3C2)cc1)CN1CCc2ccccc2C1 (centres unmarked) [Compound 3]
101 to 1000	OC(COc1cccc(CNC2CCCCC2)c1)CN1CCc2ccccc2C1 (centres unmarked) [Compound 4]
101 to 1000	OC(COc1cccc(CNC2CCOCC2)c1)CN1CCc2ccccc2C1 (centres unmarked) [Compound 5, 1-(3,4-dihydroisoquinolin-2(1H)-yl)-3-(3-(((tetrahydro-2H-pyran-4-yl)amino)methyl)phenoxy)propan-2-ol]
101 to 1000	OC(COc1cccc(CNc2cc[nH]n2)c1)CN1CCc2ccccc2C1 (centres unmarked) [Compound 6, 1-(3-(((1H-pyrazol-3-yl)amino)methyl)phenoxy)-3-(3,4-dihydroisoquinolin-2(1H)-yl)propan-2-ol]
1000 to 10000	OC(COc1ccccc1C1CCCCC1)CN1CCc2ccccc2C1 (centres unmarked) [Compound 8]
1000 to 10000	OC(COc1ccc(-n2cncn2)cc1)CN1CCc2ccccc2C1 (centres unmarked) [Compound 9]
101 to 1000	OC(COc1ccc(Cc2ccccc2)cc1)CN1CCc2ccccc2C1 (centres unmarked) [Compound 10]
101 to 1000	OC(COCc1cc(-c2ccc(Cl)cc2)no1)CN1CCc2ccccc2C1 (centres unmarked) [Compound 11]
1000 to 10000	OC(COCc1ccc(OCc2ccccc2)cc1)CN1CCc2ccccc2C1 (centres unmarked) [Compound 12]
1000 to 10000	OC(COc1cccc(CNC2CCNCC2)c1)CN1CCc2ccccc2C1 (centres unmarked) [Compound 13]
1000 to 10000	OC(COc1cccc(CN2CCCCC2)c1)CN1CCc2ccccc2C1 (centres unmarked) [Compound 14]
1000 to 10000	OC(COc1cccc2ccc(N3CCOCC3)nc12)CN1CCc2ccccc2C1 (centres unmarked) [Compound 15]
1000 to 10000	OC(COc1ccccc1-c1ccno1)CN1CCc2ccccc2C1 (centres unmarked) [Compound 16]
101 to 1000	Cc1cc(OCC(O)CN2CCc3ccccc3C2)c(C)cc1CN1CCOCC1 (centres unmarked) [Compound 17]
1000 to 10000	O=S1(=O)CCN(c2ccc(OCC(O)CN3CCc4ccccc4C3)cc2)CC1 (centres unmarked) [Compound 18]
1000 to 10000	OC(COc1ccc(OCc2ccccc2)cc1)CN1CCc2ccccc2C1 (centres unmarked) [Compound 19]
1000 to 10000	OC(COc1cccc(OCc2ccccc2)c1)CN1CCc2ccccc2C1 (centres unmarked) [Compound 20]
1000 to 10000	OC(COC1CCN(Cc2ccccc2)CC1)CN1CCc2ccccc2C1 (centres unmarked) [Compound 21]
1000 to 10000	CN(Cc1ccc(OCC(O)CN2CCc3ccccc3C2)cc1)C1CCCC1 (centres unmarked) [Compound 24]
1000 to 10000	OC(COc1ccc(C2CCNCC2)cc1)CN1CCc2ccccc2C1 (centres unmarked) [Compound 25]
10000 to 40000	CC(C)n1nccc1-c1ccc(OCC(O)CN2CCc3ccccc3C2)cc1 (centres unmarked) [Compound 26]
1000 to 10000	CC(C)n1ccc(-c2ccc(OCC(O)CN3CCc4ccccc4C3)cc2)n1 (centres unmarked) [Compound 27]
1000 to 10000	Cc1nn(-c2ccccc2)c(C)c1COCC(O)CN1CCc2ccccc2C1 (centres unmarked) [Compound 28]
10000 to 40000	COc1cccc2c1CN(CC(O)COc1cccc(CNC3CCCC3)c1)CC2 (centres unmarked) [Compound 29]
101 to 1000	O=C(c1ccc(Cn2nccc2-c2ccc(OCC(O)CN3CCc4ccccc4C3)cc2)cc1)N1CCCC1 (centres unmarked) [Compound 31, (4-((5-(4-(3-(3,4-dihydroisoquinolin-2(1H)-yl)-2-hydroxypropoxy)phenyl)-1H-pyrazol-1-yl)methyl)phenyl)(pyrrolidin-1-yl)methanone]
1000 to 10000	COC(COc1cccc(CNC2CCCC2)c1)CN1CCc2ccccc2C1 (centres unmarked) [Compound 32]

IC50 [nM]	SMILES
1000 to 10000	CC(C(O)COc1cccc(CNC2CCCC2)c1)N1CCc2ccccc2C1 (centres unmarked) [Compound 33]
1000 to 10000	O=C(c1ccc(Cn2ccc(-c3ccc(OCC(O)CN4CCc5ccccc5C4)cc3)n2)cc1)N1CCCC1 (centres unmarked) [Compound 34]
1000 to 10000	OC(COC1CCN(Cc2ccccc2)C1)CN1CCc2ccccc2C1 (centres unmarked) [Compound 35]
10000 to 40000	OC(CCc1cccc(CNC2CCCC2)c1)CN1CCc2ccccc2C1 (centres unmarked) [Compound 36]
101 to 1000	OC(CNc1cccc(CNC2CCCC2)c1)CN1CCc2ccccc2C1 (centres unmarked) [Compound 39, 1-((3-((cyclopentylamino)methyl)phenyl)amino)-3-(3,4-dihydroisoquinolin-2(1H)-yl)propan-2-ol]
1000 to 10000	OC(COc1cccc(-c2cccnc2)c1)CN1CCc2ccccc2C1 (centres unmarked) [Compound 40]
101 to 1000	OC(COc1cccc(-c2ccccc2)c1)CN1CCc2ccccc2C1 (centres unmarked) [Compound 43, 1-([1,1′-biphenyl]-3-yloxy)-3-(3,4-dihydroisoquinolin-2(1H)-yl) propan-2-ol]
1000 to 10000	Cn1cc(-c2cccc(OCC(O)CN3CCc4ccccc4C3)c2)cn1 (centres unmarked) [Compound 44]
1000 to 10000	OC(COCc1ccc(CN2CCOCC2)cc1)CN1CCc2ccccc2C1 (centres unmarked) [Compound 46]
1000 to 10000	OC(COc1ccc(-c2ccn[nH]2)cc1)CN1CCc2ccccc2C1 (centres unmarked) [Compound 48]
101 to 1000	CC(Oc1cccc(CNC2CCCC2)c1)C(O)CN1CCc2ccccc2C1 (centres unmarked) [Compound 49]
1000 to 10000	CC1c2ccccc2CCN1CC(O)COc1cccc(CNC2CCCC2)c1 (centres unmarked) [Compound 50]
1000 to 10000	OC(COc1cccc(C2CCCCC2)c1)CN1CCc2ccccc2C1 (centres unmarked) [Compound 52]
101 to 1000	CN(CC(O)CN1CCc2ccccc2C1)c1cccc(CNC2CCCC2)c1 (centres unmarked) [Compound 53]
1000 to 10000	OC(COc1cccc(-c2cccc(Oc3ccccc3)c2)c1)CN1CCc2ccccc2C1 (centres unmarked) [Compound 55]
1000 to 10000	OC(COc1cccc(C2=CCCCC2)c1)CN1CCc2ccccc2C1 (centres unmarked) [Compound 57]
101 to 1000	Cn1cnc2cc(-c3cccc(OCC(O)CN4CCc5ccccc5C4)c3)ccc21 (centres unmarked) [Compound 60, 1-(3,4-dihydroisoquinolin-2(1H)-yl)-3-(3-(1-methyl-1H-benzo[d]imidazol-5-yl)phenoxy)propan-2-ol]
101 to 1000	OC(COc1cccc(-c2cc(C(F)(F)F)ccc2Cl)c1)CN1CCc2ccccc2C1 (centres unmarked) [Compound 62, 1-((2′-chloro-5′-(trifluoromethyl)-[1,1′-biphenyl]-3-yl)oxy)-3-(3,4-dihydroisoquinolin-2(1H)-yl)propan-2-ol]
101 to 1000	CS(=O)(=O)c1ccc(-c2cccc(OCC(O)CN3CCc4ccccc4C3)c2)cc1 (centres unmarked) [Compound 63]
1000 to 10000	COc1ccc(Cl)c(-c2cccc(OCC(O)CN3CCc4ccccc4C3)c2)c1 (centres unmarked) [Compound 64]
101 to 1000	Cn1cnc2ccc(N3CCCC(OCC(O)CN4CCc5ccccc5C4)C3)cc21 (centres unmarked) [Compound 66]
101 to 1000	CC(=O)c1cccc(-c2cccc(OCC(O)CN3CCc4ccccc4C3)c2)c1 (centres unmarked) [Compound 67]
1000 to 10000	OC(COc1cccc(-c2ccc(Cl)cc2)c1)CN1CCc2ccccc2C1 (centres unmarked) [Compound 69]
1000 to 10000	Oc1ccc(-c2cccc(OCC(O)CN3CCc4ccccc4C3)c2)cc1F (centres unmarked) [Compound 70]
1000 to 10000	COc1ccccc1-c1cccc(OCC(O)CN2CCc3ccccc3C2)c1 (centres unmarked) [Compound 71]
101 to 1000	OCc1cccc(-c2cccc(OCC(O)CN3CCc4ccccc4C3)c2)c1 (centres unmarked) [Compound 72, 1-(3,4-dihydroisoquinolin-2(1H)-yl)-3-((3′-(hydroxymethyl)-[1,1′-biphenyl]-3-yl)oxy)propan-2-ol]
1000 to 10000	OCc1ccc(-c2cccc(OCC(O)CN3CCc4ccccc4C3)c2)cc1 (centres unmarked) [Compound 73]

SMILES	IC50 [nM]
OC(COc1ccccc1N1CCNCC1)CN1CCc2ccccc2C1 (centres unmarked) [Compound 7]	10000 to 40000
